How the values were obtained:
[1] = molecular target: T1, ABCG2 (Homo sapiens, UniProt Q9UNQ0); assay: vanadate-sensitive ATPase stimulation in membrane vesicles; assay type: biochemical
T1 sequence (Q9UNQ0 1-655): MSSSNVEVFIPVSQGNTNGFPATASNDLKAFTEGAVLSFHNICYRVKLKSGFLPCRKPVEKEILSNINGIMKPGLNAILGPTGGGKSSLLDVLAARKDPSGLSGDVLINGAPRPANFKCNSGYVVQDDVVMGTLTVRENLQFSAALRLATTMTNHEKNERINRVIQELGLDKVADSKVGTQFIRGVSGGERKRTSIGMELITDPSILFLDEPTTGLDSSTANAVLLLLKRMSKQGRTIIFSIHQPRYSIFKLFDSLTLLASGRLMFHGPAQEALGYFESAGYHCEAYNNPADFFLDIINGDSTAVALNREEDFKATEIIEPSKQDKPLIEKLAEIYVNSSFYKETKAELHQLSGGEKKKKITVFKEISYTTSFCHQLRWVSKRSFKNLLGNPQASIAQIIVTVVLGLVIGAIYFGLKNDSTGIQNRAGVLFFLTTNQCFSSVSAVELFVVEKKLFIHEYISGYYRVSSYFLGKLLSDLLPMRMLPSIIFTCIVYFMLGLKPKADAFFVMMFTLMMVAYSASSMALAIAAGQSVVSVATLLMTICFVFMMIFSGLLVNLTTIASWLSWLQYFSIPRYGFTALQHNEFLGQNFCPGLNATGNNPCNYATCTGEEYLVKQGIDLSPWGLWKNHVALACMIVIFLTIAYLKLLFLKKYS

[2] = molecular target: ABCB1 (Homo sapiens, UniProt P08183); assay: as above; assay type: biochemical
Sequence of ABCB1 (P08183 whole entry): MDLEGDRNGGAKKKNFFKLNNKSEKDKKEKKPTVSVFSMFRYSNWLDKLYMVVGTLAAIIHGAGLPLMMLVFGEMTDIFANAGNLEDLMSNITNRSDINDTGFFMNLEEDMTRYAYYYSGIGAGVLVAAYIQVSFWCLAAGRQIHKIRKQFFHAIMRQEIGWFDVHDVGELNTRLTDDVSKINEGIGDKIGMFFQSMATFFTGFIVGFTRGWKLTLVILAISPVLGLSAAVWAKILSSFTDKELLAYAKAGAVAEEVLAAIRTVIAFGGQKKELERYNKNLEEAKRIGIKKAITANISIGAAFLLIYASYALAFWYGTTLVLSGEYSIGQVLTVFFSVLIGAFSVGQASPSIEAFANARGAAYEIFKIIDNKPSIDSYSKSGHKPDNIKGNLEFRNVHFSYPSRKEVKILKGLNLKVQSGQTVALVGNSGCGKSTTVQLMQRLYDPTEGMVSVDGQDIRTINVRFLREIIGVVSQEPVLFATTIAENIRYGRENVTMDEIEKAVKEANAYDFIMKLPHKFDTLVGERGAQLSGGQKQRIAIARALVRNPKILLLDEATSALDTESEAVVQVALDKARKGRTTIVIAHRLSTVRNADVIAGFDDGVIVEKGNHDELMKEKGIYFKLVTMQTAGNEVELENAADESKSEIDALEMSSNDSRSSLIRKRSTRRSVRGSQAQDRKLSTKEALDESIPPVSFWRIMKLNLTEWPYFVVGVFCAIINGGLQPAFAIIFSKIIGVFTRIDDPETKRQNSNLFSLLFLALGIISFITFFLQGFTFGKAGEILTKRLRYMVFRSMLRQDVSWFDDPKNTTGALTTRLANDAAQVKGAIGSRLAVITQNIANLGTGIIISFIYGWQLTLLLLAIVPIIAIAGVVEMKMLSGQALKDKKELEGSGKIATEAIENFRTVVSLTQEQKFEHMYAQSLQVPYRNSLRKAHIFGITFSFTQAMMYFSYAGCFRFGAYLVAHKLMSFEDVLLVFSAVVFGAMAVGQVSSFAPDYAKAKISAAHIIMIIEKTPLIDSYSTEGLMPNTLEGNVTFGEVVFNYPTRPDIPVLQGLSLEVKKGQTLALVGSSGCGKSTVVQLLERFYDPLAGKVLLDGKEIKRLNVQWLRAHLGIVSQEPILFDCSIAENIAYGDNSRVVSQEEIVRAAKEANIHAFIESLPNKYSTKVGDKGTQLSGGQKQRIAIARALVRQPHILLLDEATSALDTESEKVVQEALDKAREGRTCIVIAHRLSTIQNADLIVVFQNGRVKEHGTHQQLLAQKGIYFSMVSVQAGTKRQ

Work on CCCc1nn(C)c2c(=O)[nH]c(-c3cc(S(=O)(=O)N4CCN(C)CC4)ccc3OCC)nc12 [Sildenafil] yielded an EC50 [1] of 250 to 500 nM and an EC50 [2] of 5000 to 10000 nM.
